# Assay results: patent US20240124442A1, “TRICYCLIC-AMIDO-BICYCLIC PRMT5 INHIBITORS” (AMGEN INC., priority 2021, published 2024)
# Columns and labels:
# HCT116 MTAP null cells = assay: HCT116 MTAP null cell line proliferation / cell viability (CellTiter-Glo, 6 days); type: cell-based; details: 144 h; HCT116 MTAP null cells, 6 days treatment, CellTiter-Glo cell viability; read-out: HCT-116 MTAP null IC50
# Outline: (§1)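 CellTiter-Glo luminescence read after 6 days of compound exposure in parental and MTAP-null HCT116 cells grown in RPMI 1640/10% FBS. Dilution series: 1:3 steps, 8–9 points, top 1 or 10 μM; or 1:2 steps, 22 points, top 10 or 50 μM. IC50 = curve transit through 50% of control.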
# HCT116 WT cells = assay: HCT116 WT (parent) cell line proliferation / cell viability (CellTiter-Glo, 6 days); type: cell-based; details: Homo sapiens, HCT-116, 144 h, 6 days treatment
# Outline: as §1
Structure (SMILES),IC50 (HCT116 MTAP null cells),IC50 (HCT116 WT cells)
"CN(C(=O)c1cc2c(cc1F)nc(N)c1c2cnn1C)[C@@H]1CCc2nc(C(F)(F)F)ccc21 (single isomer, unassigned) [Example 389]",0.185 µM,17.2 µM
"CN(C(=O)c1cc2c(cc1F)nc(N)c1c2cnn1C)[C@H]1CCc2nc(C(F)(F)F)ccc21 (single isomer, unassigned) [Example 390]",6.55 µM,25 µM
"Cc1nn(C)c2c1c(N)nc1cc(F)c(C(=O)N(C)[C@@H]3COc4cc(S(F)(F)(F)(F)F)ccc43)cc12 (single isomer, unassigned) [Example 391]",0.038 µM,1.04 µM
"Cc1nn(C)c2c1c(N)nc1cc(F)c(C(=O)N(C)[C@H]3COc4cc(S(F)(F)(F)(F)F)ccc43)cc12 (single isomer, unassigned) [Example 392]",0.995 µM,8.3 µM
"COc1ccc2c(c1)COC[C@H]2N(C)C(=O)c1ccc2nc(N)c3c(c2c1)COC3 (single isomer, unassigned) [Example 393]",0.136 µM,4.07 µM
"C[C@H]1OCc2c1c(N)nc1ccc(C(=O)N(C)[C@@H]3COCc4cc(Br)ccc43)cc21 (single isomer, unassigned) [Example 394]",0.025 µM,1.44 µM
"C[C@H]1OCc2c1c(N)nc1ccc(C(=O)N(C)[C@H]3COCc4cc(Br)ccc43)cc21 (single isomer, unassigned) [Example 395]",0.696 µM,10 µM
"CCN(C(=O)c1ccc2nc(N)c3c(c2c1)CO[C@@H]3C)[C@@H]1COCc2cc(Br)ccc21 (single isomer, unassigned) [Example 396]",0.01 µM,0.272 µM
"CCN(C(=O)c1ccc2nc(N)c3c(c2c1)CO[C@@H]3C)[C@H]1COCc2cc(Br)ccc21 (single isomer, unassigned) [Example 397]",0.599 µM,18.7 µM
"CN(C(=O)c1cc2c3c(c(N)nc2cn1)COC3)[C@@H]1COCc2cc(Br)ccc21 (single isomer, unassigned) [Example 398]",0.02 µM,0.911 µM
"CN(C(=O)c1cc2c3c(c(N)nc2cn1)COC3)[C@H]1COCc2cc(Br)ccc21 (single isomer, unassigned) [Example 399]",1.33 µM,10 µM
"COc1ccc2c(c1)COC[C@H]2N(C)C(=O)c1cc2c3c(c(N)nc2cc1F)COC3 (single isomer, unassigned) [Example 400]",0.05 µM,2.11 µM
"CN(C(=O)c1cc2c3c(c(N)nc2cc1F)COC3)[C@@H]1CCOc2cc(C(F)(F)F)ccc21 (single isomer, unassigned) [Example 401]",0.148 µM,6.57 µM
"CN(C(=O)c1cc2c3c(c(N)nc2cc1Cl)COC3)[C@@H]1COCc2nc(C#N)ccc21 (single isomer, unassigned) [Example 402]",0.008 µM,0.436 µM
"CN(C(=O)c1cc2c3c(c(N)nc2cc1Cl)COC3)[C@H]1COCc2nc(C#N)ccc21 (single isomer, unassigned) [Example 403]",0.463 µM,25.8 µM
"CN(C(=O)c1cc2c3c(c(N)nc2cc1Cl)COC3)[C@@H]1COCc2c1ccc(C(F)(F)F)c2F (single isomer, unassigned) [Example 404]",0.009 µM,0.25 µM
"CN(C(=O)c1cc2c3c(c(N)nc2cc1Cl)COC3)[C@H]1COCc2c1ccc(C(F)(F)F)c2F (single isomer, unassigned) [Example 405]",0.696 µM,14.7 µM
"C[C@H]1OC[C@@H](N(C)C(=O)c2cc3c4c(c(N)nc3nc2Cl)COC4)c2ccc(C(F)(F)F)cc21 (single isomer, unassigned) [Example 406]",0.011 µM,0.322 µM
"CN(C(=O)c1ccc2nc(N)c3cnn(C)c3c2c1)[C@@H]1COCc2c(F)cncc21 (single isomer, unassigned) [Example 407]",0.554 µM,23.3 µM
"COc1ccc2c(c1)COC[C@H]2N(C)C(=O)c1ccc2nc(N)c3cnn(C)c3c2c1 (single isomer, unassigned) [Example 408]",0.024 µM,1.71 µM
"CN(C(=O)c1ccc2nc(N)c3cnn(C)c3c2c1)[C@@H]1COCc2c1ccc(F)c2F (single isomer, unassigned) [Example 409]",0.048 µM,3.91 µM
"CCOc1ccc2c(n1)COC[C@H]2N(C)C(=O)c1ccc2nc(N)c3cnn(C)c3c2c1 (single isomer, unassigned) [Example 410]",0.021 µM,1.47 µM
"CN(C(=O)c1ccc2nc(N)c3cnn(C)c3c2c1)[C@@H]1CCCc2nc(C(F)(F)F)ccc21 (single isomer, unassigned) [Example 411]",0.083 µM,6.27 µM
"CN(C(=O)c1ccc2nc(N)c3cnn(C)c3c2c1)[C@@H]1COCc2cc(Br)ccc21 (single isomer, unassigned) [Example 412]",0.004 µM,0.228 µM

Structure (SMILES),IC50 (HCT116 MTAP null cells),IC50 (HCT116 WT cells)
"CN(C(=O)c1ccc2nc(N)c3cnn(C)c3c2c1)[C@H]1COCc2cc(Br)ccc21 (single isomer, unassigned) [Example 413]",0.36 µM,7.99 µM
"C[C@H]1OC[C@@H](N(C)C(=O)c2ccc3nc(N)c4cnn(C)c4c3c2)c2ccc(C(F)(F)F)cc21 (single isomer, unassigned) [Example 414]",0.001 µM,0.019 µM
"C[C@@H]1OC[C@H](N(C)C(=O)c2ccc3nc(N)c4cnn(C)c4c3c2)c2ccc(C(F)(F)F)cc21 (single isomer, unassigned) [Example 415]",0.078 µM,2.63 µM
"CN(C(=O)c1ccc2nc(N)c3cnn(C)c3c2c1)[C@@H]1COCc2c1ccc(C(F)(F)F)c2F (single isomer, unassigned) [Example 416]",0.006 µM,0.414 µM
"CN(C(=O)c1ccc2nc(N)c3cnn(C)c3c2c1)[C@H]1COCc2c1ccc(C(F)(F)F)c2F (single isomer, unassigned) [Example 417]",0.841 µM,6.11 µM
"CN(C(=O)c1ccc2nc(N)c3cnn(C)c3c2c1)[C@@H]1COCc2nc(Br)ccc21 (single isomer, unassigned) [Example 418]",0.003 µM,0.421 µM
"CN(C(=O)c1ccc2nc(N)c3cnn(C)c3c2c1)[C@H]1COCc2nc(Br)ccc21 (single isomer, unassigned) [Example 419]",0.545 µM,26.4 µM
"COc1ccc2c(c1)COC[C@H]2N(C)C(=O)c1cc2c(cn1)nc(N)c1cnn(C)c12 (single isomer, unassigned) [Example 420]",0.015 µM,0.439 µM
"COc1ccc2c(c1)COC[C@@H]2N(C)C(=O)c1cc2c(cn1)nc(N)c1cnn(C)c12 (single isomer, unassigned) [Example 421]",0.792 µM,35.2 µM
"CN(C(=O)c1cc2c(cn1)nc(N)c1cnn(C)c12)[C@@H]1COCc2c1ccc(C(F)(F)F)c2F (single isomer, unassigned) [Example 422]",0.01 µM,0.241 µM
"CN(C(=O)c1cc2c(cc1F)nc(N)c1cnn(C)c12)[C@@H]1COCc2ncccc21 (single isomer, unassigned) [Example 423]",0.039 µM,1.61 µM
"CN(C(=O)c1cc2c(cc1F)nc(N)c1cnn(C)c12)[C@H]1COCc2ncccc21 (single isomer, unassigned) [Example 424]",0.593 µM,18.6 µM
"CN(C(=O)c1cc2c(cc1F)nc(N)c1cnn(C)c12)[C@@H]1COCc2c(F)cncc21 (single isomer, unassigned) [Example 425]",0.158 µM,13.4 µM
"CN(C(=O)c1cc2c(cc1F)nc(N)c1cnn(C)c12)[C@H]1COCc2c(F)cncc21 (single isomer, unassigned) [Example 426]",0.355 µM,27.9 µM
"COc1ccc2c(c1)COC[C@H]2N(C)C(=O)c1cc2c(cc1F)nc(N)c1cnn(C)c12 (single isomer, unassigned) [Example 427]",0.008 µM,0.247 µM
"COc1ccc2c(c1)COC[C@@H]2N(C)C(=O)c1cc2c(cc1F)nc(N)c1cnn(C)c12 (single isomer, unassigned) [Example 428]",0.275 µM,8.34 µM
"CN(C(=O)c1cc2c(cc1F)nc(N)c1cnn(C)c12)[C@@H]1CCCc2nc(C(F)(F)F)ccc21 (single isomer, unassigned) [Example 429]",0.049 µM,2.35 µM
"CN(C(=O)c1cc2c(cc1F)nc(N)c1cnn(C)c12)[C@@H]1COCc2cc(OC(F)(F)F)ccc21 (single isomer, unassigned) [Example 430]",0.003 µM,0.075 µM
"CN(C(=O)c1cc2c(cc1F)nc(N)c1cnn(C)c12)[C@H]1COCc2cc(OC(F)(F)F)ccc21 (single isomer, unassigned) [Example 431]",0.305 µM,5.88 µM
"CN(C(=O)c1cc2c(cc1F)nc(N)c1cnn(C)c12)[C@@H]1COCc2c1ccc(C(F)(F)F)c2F (single isomer, unassigned) [Example 432]",0.009 µM,0.127 µM
"CN(C(=O)c1cc2c(cc1F)nc(N)c1cnn(C)c12)[C@H]1COCc2c1ccc(C(F)(F)F)c2F (single isomer, unassigned) [Example 433]",0.418 µM,3.28 µM
"CN(C(=O)c1cc2c(cc1F)nc(N)c1cnn(C)c12)[C@@H]1CC(C)(C)Cc2nc(C(F)(F)F)ccc21 (single isomer, unassigned) [Example 434]",0.223 µM,11.5 µM
"CN(C(=O)c1cc2c(cc1F)nc(N)c1cnn(C)c12)[C@H]1CC(C)(C)Cc2nc(C(F)(F)F)ccc21 (single isomer, unassigned) [Example 435]",0.32 µM,13.4 µM
